Laboratory results: ChEMBL document CHEMBL5120880, “Peptidomimetics: An Overview of Recent Medicinal Chemistry Efforts toward the Discovery of Novel Small Molecule Inhibitors” (J Med Chem, 2022)
pEC50, pIC50: −log10 of the molar value. Values after ≈ are worked out from the molar mass of the structure shown.

What was measured:
[1] = tested on: Escherichia coli; test: Antimicrobial activity against Escherichia coli KCTC 1682 assessed as minimal inhibitory concentration incubated for 18 hrs; type: functional
[2] = tested on: Pseudomonas aeruginosa; test: Antimicrobial activity against Pseudomonas aeruginosa KCTC 1637 assessed as minimal inhibitory concentration incubated for 18 hrs; type: functional
[3] = tested on: Staphylococcus epidermidis; test: Antimicrobial activity against Staphylococcus epidermidis KCTC 1917 assessed as minimal inhibitory concentration incubated for 18 hrs; type: functional
[4] = tested on: Staphylococcus aureus; test: Antimicrobial activity against Staphylococcus aureus KCTC 1621 assessed as minimal inhibitory concentration incubated for 18 hrs; type: functional
[5] = tested on: Staphylococcus aureus; test: Antibacterial activity against Staphylococcus aureus assessed as minimal inhibitory concentration incubated for 24 hrs; type: functional
[6] = tested on: Escherichia coli; test: Antibacterial activity against Escherichia coli assessed as minimal inhibitory concentration incubated for 24 hrs; type: functional
[7] = tested on: Staphylococcus aureus; test: Antibacterial activity against Staphylococcus aureus MRSA assessed as minimal inhibitory concentration incubated for 24 hrs; type: functional
[8] = tested on: Bacillus subtilis; test: Antibacterial activity against Bacillus subtilis assessed as minimal inhibitory concentration incubated for 72 hrs; type: functional
[9] = tested on: Salmonella enterica; test: Antibacterial activity against Salmonella enterica assessed as minimal inhibitory concentration incubated for 24 hrs; type: functional
[10] = tested on: Middle East respiratory syndrome-related coronavirus; test: microbe, parasite or virus in culture
[11] = tested on: Murine hepatitis virus; test: microbe, parasite or virus in culture; conditions: Murine coronavirus
[12] = tested on: SARS-CoV-2; test: microbe, parasite or virus in culture; conditions: Severe acute respiratory syndrome coronavirus 2
[13] = tested on: Feline infectious peritonitis virus; test: microbe, parasite or virus in culture; conditions: Alphacoronavirus 1
[14] = tested on: SARS-CoV; test: microbe, parasite or virus in culture; conditions: Severe acute respiratory syndrome-related coronavirus
[15] = tested on: Escherichia coli; test: Antibacterial activity against Escherichia coli BW25113 assessed as minimal inhibitory concentration by microdilution assay; type: functional
[16] = tested on: Mycolicibacterium phlei; test: Antibacterial activity against Mycobacterium phlei DSM750 assessed as minimal inhibitory concentration by microdilution assay; type: functional
[17] = tested on: Salmonella typhimurium; test: Antibacterial activity against Salmonella typhimurium TA100 assessed as minimal inhibitory concentration by microdilution assay; type: functional, Salmonella enterica subsp. enterica serovar Typhimurium; conditions: Salmonella enterica
[18] = tested on: Bacillus subtilis; test: Antibacterial activity against Bacillus subtilis DSM10 assessed as minimal inhibitory concentration by microdilution assay; type: functional

SMILES: CC(=O)NCCNc1nc(NCC(=O)NCCNc2nc(NCC(N)=O)nc(N(Cc3ccccc3)Cc3ccccc3)n2)nc(N(CCCN)CCCN)n1
- MIC [1]: 64 µg/mL (≈ 82.9 µM)
- MIC [2]: 32 µg/mL (≈ 41.5 µM)
- MIC [3]: 32 µg/mL (≈ 41.5 µM)
- MIC [4]: 32 µg/mL (≈ 41.5 µM)

SMILES: CCCCCCCCCCCCCCCCNC(=O)[C@@H](N)Cc1ccccc1
- MIC [5]: 1250 µg/mL (≈ 3220 µM)
- MIC [6]: 1250 µg/mL (≈ 3220 µM)
- MIC [7]: 1250 µg/mL (≈ 3220 µM)
- MIC [8]: 625 µg/mL (≈ 1610 µM)
- MIC [9]: 625 µg/mL (≈ 1610 µM)

SMILES: CCCC1CCC(OC(=O)N[C@@H](CC(C)C)C(=O)N[C@@H](C[C@H]2CCNC2=O)C(O)S(=O)(=O)O)CC1 (stereo partly specified)
- pIC50 [10]: 7.00
- pEC50 [11]: 6.80
- pIC50 [12]: 5.80
- pEC50 [13]: 6.77

SMILES: CC(C)C[C@H](NC(=O)OCC1CCC(F)(F)CC1)C(=O)N[C@@H](C[C@H]1CCNC1=O)C(O)S(=O)(=O)O (stereo partly specified)
- pIC50 [10]: 7.00
- pEC50 [11]: 6.80
- pIC50 [12]: 5.96
- pIC50 [14]: 5.96
- pEC50 [13]: 7.15

SMILES: COc1c(/C=C(\F)c2ccc(NC(=O)[C@H](CC#N)NC(=O)c3ccc(NC(=O)/C(C)=C/c4ccc(O)cc4)cc3)cc2)ccc(C(=O)Nc2ccc(C(=O)O)c(O)c2OC)c1O
- MIC [15]: < 0.063 µg/mL
- MIC [16]: 0.25 µg/mL (≈ 0.296 µM)
- MIC [17]: 0.031 µg/mL (≈ 0.0367 µM)
- MIC [18]: 0.031 µg/mL (≈ 0.0367 µM)

SMILES: CC(=O)NCCNc1nc(NCC(=O)NCCNc2nc(NCC(=O)NCCNc3nc(NCC(N)=O)nc(N(Cc4ccccc4)Cc4ccccc4)n3)nc(N(CCCN)CCCN)n2)nc(N(Cc2ccccc2)Cc2ccccc2)n1
- MIC [1]: 128 µg/mL (≈ 110 µM)
- MIC [2]: 32 µg/mL (≈ 27.6 µM)
- MIC [3]: 64 µg/mL (≈ 55.1 µM)
- MIC [4]: 64 µg/mL (≈ 55.1 µM)

SMILES: CCCCCCCCCCCCNC(=O)[C@@H](N)C(C)CC (stereo partly specified)
- MIC [5]: 2.5 µg/mL (≈ 8.37 µM)
- MIC [6]: 2 µg/mL (≈ 6.7 µM)
- MIC [7]: 4 µg/mL (≈ 13.4 µM)
- MIC [8]: 510 µg/mL (≈ 1710 µM)
- MIC [9]: 5 µg/mL (≈ 16.7 µM)

SMILES: CCCCCCCCCCCCNC(=O)[C@H](N)Cc1ccccc1
- MIC [5]: 5 µg/mL (≈ 15 µM)
- MIC [6]: 5 µg/mL (≈ 15 µM)
- MIC [7]: 20 µg/mL (≈ 60.1 µM)
- MIC [8]: 8.3 µg/mL (≈ 25 µM)
- MIC [9]: 10 µg/mL (≈ 30.1 µM)

SMILES: COc1c(/C=C/c2ccc(NC(=O)[C@H](CC#N)NC(=O)c3ccc(NC(=O)/C(C)=C/c4ccc(O)cc4)cc3)cc2)ccc(C(=O)Nc2ccc(C(=O)O)c(O)c2OC)c1O
- MIC [15]: 0.125 µg/mL (≈ 0.151 µM)
- MIC [16]: 0.5 µg/mL (≈ 0.605 µM)
- MIC [17]: 0.063 µg/mL (≈ 0.0763 µM)
- MIC [18]: 0.063 µg/mL (≈ 0.0763 µM)

SMILES: COc1c(NC(=O)c2ccc(-c3cc4ccc(-c5ccc(NC(=O)[C@H](CC#N)NC(=O)c6ccc(NC(=O)/C(C)=C/c7ccc(O)cc7)cc6)cc5)cc4o3)c(OC)c2O)ccc(C(=O)O)c1O
- MIC [15]: 1 µg/mL (≈ 1.09 µM)
- MIC [16]: 1 µg/mL (≈ 1.09 µM)
- MIC [17]: 0.125 µg/mL (≈ 0.136 µM)
- MIC [18]: 0.25 µg/mL (≈ 0.273 µM)

SMILES: CCCCCCCCNC(=O)[C@@H](N)Cc1ccccc1
- MIC [5]: 39 µg/mL (≈ 141 µM)
- MIC [6]: 39 µg/mL (≈ 141 µM)
- MIC [7]: 52 µg/mL (≈ 188 µM)
- MIC [8]: 78 µg/mL (≈ 282 µM)
- MIC [9]: 62.5 µg/mL (≈ 226 µM)

SMILES: CC(=O)NCCNc1nc(NCC(=O)NCCNc2nc(NCC(=O)NCCNc3nc(NCC(N)=O)nc(N(CCCN)CCCN)n3)nc(N(Cc3ccccc3)Cc3ccccc3)n2)nc(N(CCCN)CCCN)n1
- MIC [1]: 16 µg/mL (≈ 14.6 µM)
- MIC [2]: 16 µg/mL (≈ 14.6 µM)
- MIC [3]: 16 µg/mL (≈ 14.6 µM)
- MIC [4]: 16 µg/mL (≈ 14.6 µM)

SMILES: CC(=O)NCCNc1nc(NCC(=O)NCCNc2nc(NCC(=O)NCCNc3nc(NCC(=O)NCCNc4nc(NCC(N)=O)nc(N(Cc5ccccc5)Cc5ccccc5)n4)nc(N(CCCN)CCCN)n3)nc(N(Cc3ccccc3)Cc3ccccc3)n2)nc(N(CCCN)CCCN)n1
- MIC [1]: 16 µg/mL (≈ 10.8 µM)
- MIC [2]: 16 µg/mL (≈ 10.8 µM)
- MIC [3]: 16 µg/mL (≈ 10.8 µM)
- MIC [4]: 16 µg/mL (≈ 10.8 µM)

SMILES: CCCCCCCCCCNC(=O)[C@@H](N)Cc1ccccc1
- MIC [5]: 13.3 µg/mL (≈ 43.7 µM)
- MIC [6]: 10 µg/mL (≈ 32.8 µM)
- MIC [7]: 20 µg/mL (≈ 65.7 µM)
- MIC [8]: 39 µg/mL (≈ 128 µM)
- MIC [9]: 15.6 µg/mL (≈ 51.2 µM)

SMILES: CCCCCCCCCCCCNC(=O)[C@@H](N)C(C)C
- MIC [5]: 3.3 µg/mL (≈ 11.6 µM)
- MIC [6]: 1.67 µg/mL (≈ 5.87 µM)
- MIC [7]: 8.3 µg/mL (≈ 29.2 µM)
- MIC [8]: 4.2 µg/mL (≈ 14.8 µM)
- MIC [9]: 6.5 µg/mL (≈ 22.8 µM)

SMILES: COc1c(NC(=O)c2ccc(-c3ccc4[nH]c(-c5ccc(NC(=O)[C@H](CC#N)NC(=O)c6ccc(NC(=O)/C(C)=C/c7ccc(O)cc7)cc6)cc5)nc4c3)c(OC)c2O)ccc(C(=O)O)c1O
- MIC [15]: 0.25 µg/mL (≈ 0.273 µM)
- MIC [16]: 8 µg/mL (≈ 8.73 µM)
- MIC [17]: 0.063 µg/mL (≈ 0.0688 µM)
- MIC [18]: 2 µg/mL (≈ 2.18 µM)
